According to ChEMBL document CHEMBL3046451, “Design, synthesis, characterization, and in vitro antimicrobial action of novel trisubstituted s-triazines” (2012):
In brackets after ≈: the same amount, converted by molar mass.

Assays:
Format in all cases: functional
[1] = tested on: Salmonella typhi; test: Antibacterial activity against Salmonella enterica subsp. enterica serovar Typhi MTCC 733 after 24 hr by paper disk diffusion method
[2] = tested on: Staphylococcus aureus; test: Antibacterial activity against Staphylococcus aureus MTCC 96 after 24 hr by agar streak dilution method; conditions: MTCC 96, 24 h
[3] = tested on: Aspergillus niger; test: Antifungal activity against Aspergillus niger MTCC 282 after 48 hr by agar streak dilution method; conditions: MTCC 282, 48 h
[4] = tested on: Candida albicans; test: Antifungal activity against Candida albicans MTCC 183 after 48 hr by agar streak dilution method; conditions: MTCC 183, 48 h
[5] = tested on: Staphylococcus aureus; test: Antibacterial activity against Staphylococcus aureus MTCC 96 after 24 hr by paper disk diffusion method
[6] = tested on: Bacillus cereus; test: Antibacterial activity against Bacillus cereus MTCC 619 after 24 hr by paper disk diffusion method; further: test concentration or dose not given here
[7] = tested on: Salmonella typhi; test: Antibacterial activity against Salmonella enterica subsp. enterica serovar Typhi MTCC 733 after 24 hr by agar streak dilution method; conditions: MTCC 733, 24 h
[8] = tested on: Pseudomonas aeruginosa; test: Antibacterial activity against Pseudomonas aeruginosa MTCC 741 after 24 hr by agar streak dilution method; conditions: MTCC 741, 24 h
[9] = tested on: Klebsiella pneumoniae; test: Antibacterial activity against Klebsiella pneumoniae MTCC 109 after 24 hr by agar streak dilution method; conditions: MTCC 109, 24 h
[10] = tested on: Proteus vulgaris; test: Antibacterial activity against Proteus vulgaris MTCC 1771 after 24 hr by paper disk diffusion method; further: test concentration or dose not given here
[11] = tested on: Proteus vulgaris; test: Antibacterial activity against Proteus vulgaris MTCC 1771 after 24 hr by agar streak dilution method; conditions: MTCC 1771, 24 h
[12] = tested on: Bacillus cereus; test: Antibacterial activity against Bacillus cereus MTCC 619 after 24 hr by agar streak dilution method; conditions: MTCC 619, 24 h
[13] = tested on: Escherichia coli; test: Antibacterial activity against Escherichia coli MTCC 739 after 24 hr by paper disk diffusion method
[14] = tested on: Candida albicans; test: Antifungal activity against Candida albicans MTCC 183 after 24 hr by paper disk diffusion method; further: test concentration or dose not given here
[15] = tested on: Shigella flexneri; test: Antibacterial activity against Shigella flexneri MTCC 1457 after 24 hr by paper disk diffusion method
[16] = tested on: Escherichia coli; test: Antibacterial activity against Escherichia coli MTCC 739 after 24 hr by agar streak dilution method; conditions: MTCC 739, 24 h
[17] = tested on: Aspergillus niger; test: Antifungal activity against Aspergillus niger MTCC 282 after 24 hr by paper disk diffusion method; further: test concentration or dose not given here
[18] = tested on: Shigella flexneri; test: Antibacterial activity against Shigella flexneri MTCC 1457 after 24 hr by agar streak dilution method; conditions: MTCC 1457, 24 h
[19] = tested on: Pseudomonas aeruginosa; test: Antibacterial activity against Pseudomonas aeruginosa MTCC 741 after 24 hr by paper disk diffusion method
[20] = tested on: Klebsiella pneumoniae; test: Antibacterial activity against Klebsiella pneumoniae MTCC 109 after 24 hr by paper disk diffusion method

CNc1nc(Nc2ccc(C#N)cc2)nc(Oc2cc(=O)n(C)c3ccccc23)n1
inhibition zone (IZ) [1]: <5 mm
MIC [2]: 50 µg/mL (≈ 125 µM)
MIC [3]: > 50 µg/mL
MIC [4]: > 50 µg/mL
inhibition zone (IZ) [5]: 11 mm
inhibition zone (IZ) [6]: 7 mm
MIC [7]: 50 µg/mL (≈ 125 µM)
MIC [8]: 6.25 µg/mL (≈ 15.6 µM)
MIC [9]: 50 µg/mL (≈ 125 µM)
inhibition zone (IZ) [10]: 8 mm
MIC [11]: 50 µg/mL (≈ 125 µM)
MIC [12]: 50 µg/mL (≈ 125 µM)
inhibition zone (IZ) [13]: <5 mm
inhibition zone (IZ) [14]: <5 mm
inhibition zone (IZ) [15]: 8 mm
MIC [16]: 50 µg/mL (≈ 125 µM)
inhibition zone (IZ) [17]: <5 mm
MIC [18]: 50 µg/mL (≈ 125 µM)
inhibition zone (IZ) [19]: 14 mm

Cn1c(=O)cc(Oc2nc(NCCCl)nc(Nc3ccc(C#N)cc3)n2)c2ccccc21
inhibition zone (IZ) [1]: 13 mm
MIC [2]: 25 µg/mL (≈ 55.8 µM)
MIC [3]: 50 µg/mL (≈ 112 µM)
MIC [4]: 50 µg/mL (≈ 112 µM)
inhibition zone (IZ) [5]: 12 mm
inhibition zone (IZ) [6]: 11 mm
MIC [7]: 25 µg/mL (≈ 55.8 µM)
MIC [8]: 50 µg/mL (≈ 112 µM)
MIC [9]: 50 µg/mL (≈ 112 µM)
inhibition zone (IZ) [10]: 8 mm
MIC [11]: 50 µg/mL (≈ 112 µM)
MIC [12]: 50 µg/mL (≈ 112 µM)
inhibition zone (IZ) [13]: 15 mm
inhibition zone (IZ) [14]: 9 mm
inhibition zone (IZ) [15]: <5 mm
MIC [16]: 25 µg/mL (≈ 55.8 µM)
inhibition zone (IZ) [17]: 8 mm
MIC [18]: 50 µg/mL (≈ 112 µM)
inhibition zone (IZ) [19]: 7 mm

Cn1c(=O)cc(Oc2nc(Nc3ccc(C#N)cc3)nc(NC3CCCCC3)n2)c2ccccc21
inhibition zone (IZ) [1]: <5 mm
MIC [2]: 6.25 µg/mL (≈ 13.4 µM)
MIC [3]: 50 µg/mL (≈ 107 µM)
MIC [4]: 50 µg/mL (≈ 107 µM)
inhibition zone (IZ) [5]: 14 mm
inhibition zone (IZ) [6]: 10 mm
MIC [7]: 50 µg/mL (≈ 107 µM)
MIC [8]: 50 µg/mL (≈ 107 µM)
MIC [9]: 12.5 µg/mL (≈ 26.7 µM)
inhibition zone (IZ) [10]: 7 mm
MIC [11]: 50 µg/mL (≈ 107 µM)
MIC [12]: 50 µg/mL (≈ 107 µM)
inhibition zone (IZ) [20]: 13 mm
inhibition zone (IZ) [13]: 8 mm
inhibition zone (IZ) [14]: 10 mm
inhibition zone (IZ) [15]: 9 mm
MIC [16]: 50 µg/mL (≈ 107 µM)
inhibition zone (IZ) [17]: 9 mm
MIC [18]: 50 µg/mL (≈ 107 µM)
inhibition zone (IZ) [19]: <5 mm

CCNc1nc(Nc2ccc(C#N)cc2)nc(Oc2cc(=O)n(C)c3ccccc23)n1
inhibition zone (IZ) [1]: 9 mm
MIC [2]: 50 µg/mL (≈ 121 µM)
MIC [3]: > 50 µg/mL
MIC [4]: > 50 µg/mL
inhibition zone (IZ) [5]: 10 mm
inhibition zone (IZ) [6]: <5 mm
MIC [7]: 50 µg/mL (≈ 121 µM)
MIC [8]: 12.5 µg/mL (≈ 30.2 µM)
MIC [9]: 50 µg/mL (≈ 121 µM)
inhibition zone (IZ) [10]: <5 mm
MIC [11]: 50 µg/mL (≈ 121 µM)
MIC [12]: 50 µg/mL (≈ 121 µM)
inhibition zone (IZ) [13]: 8 mm
inhibition zone (IZ) [14]: <5 mm
inhibition zone (IZ) [15]: 7 mm
MIC [16]: 50 µg/mL (≈ 121 µM)
inhibition zone (IZ) [17]: <5 mm
MIC [18]: 50 µg/mL (≈ 121 µM)
inhibition zone (IZ) [19]: 12 mm

Cn1c(=O)cc(Oc2nc(NCc3ccccc3)nc(Nc3ccc(C#N)cc3)n2)c2ccccc21
inhibition zone (IZ) [1]: <5 mm
MIC [2]: 12.5 µg/mL (≈ 26.3 µM)
MIC [3]: > 50 µg/mL
MIC [4]: > 50 µg/mL
inhibition zone (IZ) [5]: 13 mm
inhibition zone (IZ) [6]: 10 mm
MIC [7]: 50 µg/mL (≈ 105 µM)
MIC [8]: 50 µg/mL (≈ 105 µM)
MIC [9]: 12.5 µg/mL (≈ 26.3 µM)
inhibition zone (IZ) [10]: <5 mm
MIC [11]: 50 µg/mL (≈ 105 µM)
MIC [12]: 50 µg/mL (≈ 105 µM)
inhibition zone (IZ) [20]: 15 mm
inhibition zone (IZ) [13]: 9 mm
inhibition zone (IZ) [14]: <5 mm
inhibition zone (IZ) [15]: 6 mm
MIC [16]: 50 µg/mL (≈ 105 µM)
inhibition zone (IZ) [17]: <5 mm
MIC [18]: 50 µg/mL (≈ 105 µM)
inhibition zone (IZ) [19]: 7 mm

CCOC(=O)CNc1nc(Nc2ccc(C#N)cc2)nc(Oc2cc(=O)n(C)c3ccccc23)n1
inhibition zone (IZ) [1]: 8 mm
MIC [2]: 50 µg/mL (≈ 106 µM)
MIC [3]: 50 µg/mL (≈ 106 µM)
MIC [4]: > 50 µg/mL
inhibition zone (IZ) [5]: 6 mm
inhibition zone (IZ) [6]: 9 mm
MIC [7]: 50 µg/mL (≈ 106 µM)
MIC [8]: 50 µg/mL (≈ 106 µM)
MIC [9]: 50 µg/mL (≈ 106 µM)
inhibition zone (IZ) [10]: 15 mm
MIC [11]: 12.5 µg/mL (≈ 26.5 µM)
MIC [12]: 50 µg/mL (≈ 106 µM)
inhibition zone (IZ) [13]: 7 mm
inhibition zone (IZ) [14]: <5 mm
inhibition zone (IZ) [15]: 11 mm
MIC [16]: 50 µg/mL (≈ 106 µM)
inhibition zone (IZ) [17]: 9 mm
MIC [18]: 50 µg/mL (≈ 106 µM)
inhibition zone (IZ) [19]: <5 mm
